Assay results taken from PubChem BioAssay AID1963827 (Molecular Pharmacology Branch, DTP, NCI, 2024).

System: 994946-033-R-J1-PDC complex spheroid viability
Test: Anticancer human tumor 994946-033-R-J1-PDC patient-derived melanoma cell line growth inhibition [POLQ]
Conditions: for IC50: curve of first compound; for viability, T/C: stronger effect = lower value
How it was run: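 Complex spheroid viability model combining PDC tumour cells with endothelial (HUVEC) and MSC stromal cells. Novobiocin, ART-558 or RP6685 were tested singly and in combination with standard and investigational anticancer drugs. Each was titrated in half-log steps from near clinical Cmax, or from 10 microM where Cmax was unknown.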

[1] = second compound 0.0316 µM, first compound 0.0316 µM
[2] = second compound 0.0316 µM, first compound 0.1 µM
[3] = second compound 0.1 µM, first compound 0.0316 µM
[4] = second compound 0.1 µM, first compound 0.1 µM
[5] = second compound 0.316 µM, first compound 0.0316 µM
[6] = second compound 0.316 µM, first compound 0.1 µM
[7] = second compound 1 µM, first compound 0.0316 µM
[8] = second compound 1 µM, first compound 0.1 µM
[9] = second compound 3.16 µM, first compound 0.0316 µM
[10] = second compound 3.16 µM, first compound 0.1 µM
[11] = second compound 10 µM, first compound 0.0316 µM
[12] = second compound 10 µM, first compound 0.1 µM
[13] = second compound 0.0316 µM, first compound 0.316 µM
[14] = second compound 0.0316 µM, first compound 1 µM
[15] = second compound 0.0316 µM, first compound 3.16 µM
[16] = second compound 0.0316 µM, first compound 10 µM
[17] = second compound 0.1 µM, first compound 0.316 µM
[18] = second compound 0.1 µM, first compound 1 µM
[19] = second compound 0.1 µM, first compound 3.16 µM
[20] = second compound 0.1 µM, first compound 10 µM
[21] = second compound 0.316 µM, first compound 0.316 µM
[22] = second compound 0.316 µM, first compound 1 µM
[23] = second compound 0.316 µM, first compound 3.16 µM
[24] = second compound 0.316 µM, first compound 10 µM
[25] = second compound 1 µM, first compound 0.316 µM
[26] = second compound 1 µM, first compound 1 µM
[27] = second compound 1 µM, first compound 3.16 µM
[28] = second compound 1 µM, first compound 10 µM
[29] = second compound 3.16 µM, first compound 0.316 µM
[30] = second compound 3.16 µM, first compound 1 µM
[31] = second compound 3.16 µM, first compound 3.16 µM
[32] = second compound 3.16 µM, first compound 10 µM
[33] = second compound 10 µM, first compound 0.316 µM
[34] = second compound 10 µM, first compound 1 µM
[35] = second compound 10 µM, first compound 3.16 µM
[36] = second compound 10 µM, first compound 10 µM
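Further: spheroids exposed to drugs for 7 days.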
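Wherever viability, T/C is given: 100% = DMSO vehicle treated spheroids.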

## CC[C@@]1(O)C(=O)OCc2c1cc1n(c2=O)Cc2cc3c(CN(C)C)c(O)ccc3nc2-1 + Cc1cccc(N(C)C(=O)C2C(O)CCN2c2nc(C)cc(C(F)(F)F)c2C#N)c1
Second compound 0.0316 µM
  IC50: 0.0191 µM
Second compound 0.1 µM
  IC50: 0.0191 µM
Second compound 0.316 µM
  IC50: 0.0201 µM
Second compound 1 µM
  IC50: 0.0112 µM
Second compound 3.16 µM
  IC50: 0.0183 µM
Second compound 10 µM
  IC50: 0.0211 µM
Second compound 0.0316 µM, first compound 0.000316 µM
  viability, T/C: 80.5%
Second compound 0.0316 µM, first compound 0.001 µM
  viability, T/C: 94%
Second compound 0.0316 µM, first compound 0.00316 µM
  viability, T/C: 110%
Second compound 0.0316 µM, first compound 0.01 µM
  viability, T/C: 73%
[1]
  viability, T/C: 30.9%
[2]
  viability, T/C: 8.8%
Second compound 0.1 µM, first compound 0.000316 µM
  viability, T/C: 113%
Second compound 0.1 µM, first compound 0.001 µM
  viability, T/C: 78.6%
Second compound 0.1 µM, first compound 0.00316 µM
  viability, T/C: 87%
Second compound 0.1 µM, first compound 0.01 µM
  viability, T/C: 78%
[3]
  viability, T/C: 28.5%
[4]
  viability, T/C: 9.63%
Second compound 0.316 µM, first compound 0.000316 µM
  viability, T/C: 83.4%
Second compound 0.316 µM, first compound 0.001 µM
  viability, T/C: 106%
Second compound 0.316 µM, first compound 0.00316 µM
  viability, T/C: 94.8%
Second compound 0.316 µM, first compound 0.01 µM
  viability, T/C: 82%
[5]
  viability, T/C: 29.2%
[6]
  viability, T/C: 12.1%
Second compound 1 µM, first compound 0.000316 µM
  viability, T/C: 108%
Second compound 1 µM, first compound 0.001 µM
  viability, T/C: 71.3%
Second compound 1 µM, first compound 0.00316 µM
  viability, T/C: 79.3%
Second compound 1 µM, first compound 0.01 µM
  viability, T/C: 57.5%
[7]
  viability, T/C: 26.9%
[8]
  viability, T/C: 9.85%
Second compound 3.16 µM, first compound 0.000316 µM
  viability, T/C: 96.1%
Second compound 3.16 µM, first compound 0.001 µM
  viability, T/C: 98.7%
Second compound 3.16 µM, first compound 0.00316 µM
  viability, T/C: 77%
Second compound 3.16 µM, first compound 0.01 µM
  viability, T/C: 71%
[9]
  viability, T/C: 33.4%
[10]
  viability, T/C: 10.7%
Second compound 10 µM, first compound 0.000316 µM
  viability, T/C: 113%
Second compound 10 µM, first compound 0.001 µM
  viability, T/C: 99.6%
Second compound 10 µM, first compound 0.00316 µM
  viability, T/C: 107%
Second compound 10 µM, first compound 0.01 µM
  viability, T/C: 81.8%
[11]
  viability, T/C: 32.7%
[12]
  viability, T/C: 10.4%

## CC(C)n1c(=O)n(C)c2cnc3cc(F)c(-c4ccc(OCCCN5CCCCC5)nc4)cc3c21 + Cc1cccc(N(C)C(=O)C2C(O)CCN2c2nc(C)cc(C(F)(F)F)c2C#N)c1
Second compound 0.0316 µM
  IC50: 6.24 µM
Second compound 0.1 µM
  IC50: 4.69 µM
Second compound 0.316 µM
  IC50: 5.46 µM
Second compound 1 µM
  IC50: 5.62 µM
Second compound 3.16 µM
  IC50: 6.62 µM
Second compound 10 µM
  IC50: 4.14 µM
[1]
  viability, T/C: 97.3%
[2]
  viability, T/C: 97.6%
[13]
  viability, T/C: 87.2%
[14]
  viability, T/C: 74.2%
[15]
  viability, T/C: 71.4%
[16]
  viability, T/C: 37.8%
[3]
  viability, T/C: 92.1%
[4]
  viability, T/C: 67.6%
[17]
  viability, T/C: 75.8%
[18]
  viability, T/C: 62.5%
[19]
  viability, T/C: 69.3%
[20]
  viability, T/C: 23.8%
[5]
  viability, T/C: 82.5%
[6]
  viability, T/C: 117%
[21]
  viability, T/C: 87.9%
[22]
  viability, T/C: 93.6%
[23]
  viability, T/C: 84.5%
[24]
  viability, T/C: 11.8%
[7]
  viability, T/C: 97%
[8]
  viability, T/C: 81%
[25]
  viability, T/C: 94%
[26]
  viability, T/C: 93.6%
[27]
  viability, T/C: 83.5%
[28]
  viability, T/C: 16.3%
[9]
  viability, T/C: 94.8%
[10]
  viability, T/C: 62.2%
[29]
  viability, T/C: 94.4%
[30]
  viability, T/C: 90.7%
[31]
  viability, T/C: 92%
[32]
  viability, T/C: 29.4%
[11]
  viability, T/C: 109%
[12]
  viability, T/C: 92.6%
[33]
  viability, T/C: 93.2%
[34]
  viability, T/C: 74.7%
[35]
  viability, T/C: 63.2%
[36]
  viability, T/C: 22.3%

## COc1ccc([C@@H](O)c2cc(-c3ncnc4cc(N5CCOCC5)ccc34)c(F)cc2Cl)nn1 + COC1C(OC(N)=O)C(O)C(Oc2ccc3c(O)c(NC(=O)c4ccc(O)c(CC=C(C)C)c4)c(=O)oc3c2C)OC1(C)C
Second compound 0.0316 µM
  IC50: 4.18 µM
Second compound 0.1 µM
  IC50: 2.2 µM
Second compound 0.316 µM
  IC50: 4.88 µM
Second compound 1 µM
  IC50: 6.13 µM
Second compound 3.16 µM
  IC50: 7.07 µM
Second compound 10 µM
  IC50: 9.07 µM
[1]
  viability, T/C: 101%
[2]
  viability, T/C: 83%
[13]
  viability, T/C: 83.5%
[14]
  viability, T/C: 78.8%
[15]
  viability, T/C: 49.4%
[16]
  viability, T/C: 36.5%
[3]
  viability, T/C: 107%
[4]
  viability, T/C: 74.5%
[17]
  viability, T/C: 93%
[18]
  viability, T/C: 73.5%
[19]
  viability, T/C: 36.7%
[20]
  viability, T/C: 41.8%
[5]
  viability, T/C: 93.3%
[6]
  viability, T/C: 107%
[21]
  viability, T/C: 85.8%
[22]
  viability, T/C: 64%
[23]
  viability, T/C: 62.3%
[24]
  viability, T/C: 39.6%
[7]
  viability, T/C: 128%
[8]
  viability, T/C: 90.6%
[25]
  viability, T/C: 70.6%
[26]
  viability, T/C: 68.7%
[27]
  viability, T/C: 76%
[28]
  viability, T/C: 39.5%
[9]
  viability, T/C: 91.7%
[10]
  viability, T/C: 88.7%
[29]
  viability, T/C: 96.1%
[30]
  viability, T/C: 70.5%
[31]
  viability, T/C: 62.6%
[32]
  viability, T/C: 44.9%
[11]
  viability, T/C: 103%
[12]
  viability, T/C: 90.4%
[33]
  viability, T/C: 71.9%
[34]
  viability, T/C: 65.5%
[35]
  viability, T/C: 60%
[36]
  viability, T/C: 47.4%
